Experimental data published in ChEMBL document CHEMBL1629583, “Establishment of in vitro susceptibility testing methodologies and comparative activities of piperacillin in combination with the penem {beta}-lactamase inhibitor BLI-489” (2009).
In brackets after ≈: the same amount, converted by molar mass.

Columns and labels:
Format in all cases: functional
[1] = tested on: Peptostreptococcus anaerobius; assay: Antimicrobial activity against Peptostreptococcus anaerobius clinical isolate after 18 to 22 hrs by broth microdilution method
Clostridium perfringens = assay: Antimicrobial activity against Clostridium perfringens clinical isolate after 18 to 22 hrs by broth microdilution method
Bacteroides uniformis = assay: Antimicrobial activity against Bacteroides uniformis clinical isolate after 18 to 22 hrs by broth microdilution method
Bacteroides fragilis = assay: Antimicrobial activity against Bacteroides fragilis clinical isolate after 18 to 22 hrs by broth microdilution method
Parvimonas micra = assay: Antimicrobial activity against Peptostreptococcus micros clinical isolate after 18 to 22 hrs by broth microdilution method
[2] = tested on: Bacteroides thetaiotaomicron; assay: Antimicrobial activity against Bacteroides thetaiotaomicron clinical isolate after 18 to 22 hrs by broth microdilution method
Proteus mirabilis = assay: Antimicrobial activity against Proteus mirabilis clinical isolate after 18 to 22 hrs by broth microdilution method
Klebsiella pneumoniae [3] = assay: Antimicrobial activity against class A extended spectrum beta-lactamase- producing Klebsiella pneumoniae clinical isolate after 18 to 22 hrs by broth microdilution method
Providencia rettgeri = assay: Antimicrobial activity against Providencia rettgeri clinical isolate after 18 to 22 hrs by broth microdilution method
Acinetobacter johnsonii = assay: Antimicrobial activity against Acinetobacter johnsonii clinical isolate after 18 to 22 hrs by broth microdilution method
Escherichia coli [4] = assay: Antimicrobial activity against class A extended spectrum beta-lactamase- producing Escherichia coli clinical isolate after 18 to 22 hrs by broth microdilution method
Klebsiella aerogenes [5] = assay: Antimicrobial activity against AmpC beta-lactamase-producing Enterobacter aerogenes clinical isolate after 18 to 22 hrs by broth microdilution method
Klebsiella oxytoca = assay: Antimicrobial activity against Klebsiella oxytoca clinical isolate after 18 to 22 hrs by broth microdilution method
Acinetobacter lwoffii = assay: Antimicrobial activity against Acinetobacter lwoffii clinical isolate after 18 to 22 hrs by broth microdilution method
Klebsiella pneumoniae [6] = assay: Antimicrobial activity against Klebsiella pneumoniae clinical isolate after 18 to 22 hrs by broth microdilution method
Escherichia coli [7] = assay: Antimicrobial activity against Escherichia coli clinical isolate after 18 to 22 hrs by broth microdilution method
Enterobacter cloacae [8] = assay: Antimicrobial activity against Enterobacter cloacae clinical isolate after 18 to 22 hrs by broth microdilution method
Citrobacter freundii [9] = assay: Antimicrobial activity against AmpC beta-lactamase-producing Citrobacter freundii clinical isolate after 18 to 22 hrs by broth microdilution method
[10] = tested on: Acinetobacter haemolyticus; assay: Antimicrobial activity against Acinetobacter haemolyticus clinical isolate after 18 to 22 hrs by broth microdilution method
Burkholderia cepacia = assay: Antimicrobial activity against Burkholderia cepacia clinical isolate after 18 to 22 hrs by broth microdilution method
Klebsiella pneumoniae [11] = assay: Antimicrobial activity against AmpC- producing Klebsiella pneumoniae clinical isolate after 18 to 22 hrs by broth microdilution method
Citrobacter freundii [12] = assay: Antimicrobial activity against Citrobacter freundii clinical isolate after 18 to 22 hrs by broth microdilution method
Proteus vulgaris = assay: Antimicrobial activity against Proteus vulgaris clinical isolate after 18 to 22 hrs by broth microdilution method
[13] = tested on: Acinetobacter calcoaceticus; assay: Antimicrobial activity against Acinetobacter calcoaceticus clinical isolate after 18 to 22 hrs by broth microdilution method
Escherichia coli [14] = assay: Antimicrobial activity against class A extended spectrum beta-lactamase- and class D OXA- producing Escherichia coli clinical isolate after 18 to 22 hrs by broth microdilution method
[15] = tested on: Haemophilus parainfluenzae; assay: Antimicrobial activity against Haemophilus parainfluenzae clinical isolate after 18 to 22 hrs by broth microdilution method
Citrobacter koseri = assay: Antimicrobial activity against Citrobacter koseri clinical isolate after 18 to 22 hrs by broth microdilution method
Klebsiella aerogenes [16] = assay: Antimicrobial activity against Enterobacter aerogenes clinical isolate after 18 to 22 hrs by broth microdilution method
Serratia marcescens [17] = assay: Antimicrobial activity against Serratia marcescens clinical isolate after 18 to 22 hrs by broth microdilution method
Morganella morganii = assay: Antimicrobial activity against Morganella morganii clinical isolate after 18 to 22 hrs by broth microdilution method
[18] = tested on: Stenotrophomonas maltophilia; assay: Antimicrobial activity against Stenotrophomonas maltophilia clinical isolate after 18 to 22 hrs by broth microdilution method
Escherichia coli [19] = assay: Antimicrobial activity against AmpC beta-lactamase-producing Escherichia coli clinical isolate after 18 to 22 hrs by broth microdilution method
Moraxella catarrhalis = assay: Antimicrobial activity against Moraxella catarrhalis clinical isolate after 18 to 22 hrs by broth microdilution method
Serratia marcescens [20] = assay: Antimicrobial activity against AmpC beta-lactamase-producing Serratia marcescens clinical isolate after 18 to 22 hrs by broth microdilution method
Klebsiella pneumoniae [21] = assay: Antimicrobial activity against class A extended spectrum beta-lactamase- and class D OXA- producing Klebsiella pneumoniae clinical isolate after 18 to 22 hrs by broth microdilution method
Enterobacter cloacae [22] = assay: Antimicrobial activity against AmpC beta-lactamase-producing Enterobacter cloacae clinical isolate after 18 to 22 hrs by broth microdilution method
Haemophilus influenzae [23] = assay: Antimicrobial activity against beta-lactamase-producing Haemophilus influenzae clinical isolate after 18 to 22 hrs by broth microdilution method
Acinetobacter junii = assay: Antimicrobial activity against Acinetobacter junii clinical isolate after 18 to 22 hrs by broth microdilution method
Haemophilus influenzae [24] = assay: Antimicrobial activity against beta-lactamase-negative Haemophilus influenzae clinical isolate after 18 to 22 hrs by broth microdilution method
Pseudomonas aeruginosa = assay: Antimicrobial activity against Pseudomonas aeruginosa clinical isolate after 18 to 22 hrs by broth microdilution method
Providencia stuartii = assay: Antimicrobial activity against Providencia stuartii clinical isolate after 18 to 22 hrs by broth microdilution method
Acinetobacter baumannii = assay: Antimicrobial activity against Acinetobacter baumannii clinical isolate after 18 to 22 hrs by broth microdilution method

Question: CO[C@@]1(NC(=O)Cc2cccs2)C(=O)N2C(C(=O)O)=C(COC(N)=O)CS[C@@H]21 [CEFOXITIN] was tested. Which MIC50 [1] did it give?
Answer: Its MIC50 is 0.25 µg/mL (≈ 0.585 µM).

Question: And the MIC90 [1]?
Answer: The MIC90 was 1 µg/mL (≈ 2.34 µM).

Question: And the MIC50 (Clostridium perfringens)?
Answer: The MIC50 was 1 µg/mL (≈ 2.34 µM).

Question: And the MIC90 (Clostridium perfringens)?
Answer: Its MIC90 is 2 µg/mL (≈ 4.68 µM).

Question: What about the MIC50 (Bacteroides uniformis) of the same compound?
Answer: Its MIC50 is 16 µg/mL (≈ 37.4 µM).

Question: And the MIC90 (Bacteroides uniformis)?
Answer: The MIC90 was 16 µg/mL (≈ 37.4 µM).

Question: And the MIC50 (Bacteroides fragilis)?
Answer: Its MIC50 is 8 µg/mL (≈ 18.7 µM).

Question: What about the MIC90 (Bacteroides fragilis) of the same compound?
Answer: Its MIC90 is 16 µg/mL (≈ 37.4 µM).

Question: What about the MIC50 (Parvimonas micra) of the same compound?
Answer: Its MIC50 is 0.5 µg/mL (≈ 1.17 µM).

Question: And the MIC90 (Parvimonas micra)?
Answer: The MIC90 was 0.5 µg/mL (≈ 1.17 µM).

Question: And the MIC [2]?
Answer: Its MIC is 16 µg/mL (≈ 37.4 µM).

Question: What about the MIC50 [2] of the same compound?
Answer: Its MIC50 is 16 µg/mL (≈ 37.4 µM).

Question: What about the MIC90 [2] of the same compound?
Answer: Its MIC90 is 32 µg/mL (≈ 74.9 µM).

Question: Which results are given for CO/N=C(\C(=O)N[C@@H]1C(=O)N2C(C(=O)O)=C(CSc3nc(=O)c(O)nn3C)CS[C@H]12)c1csc(N)n1 [CEFTRIAXONE]?
Answer: MIC50 (Proteus mirabilis): ≤ 0.03 µg/mL; MIC90 (Proteus mirabilis): > 32 µg/mL; MIC50 (Klebsiella pneumoniae [3]): > 32 µg/mL; MIC90 (Klebsiella pneumoniae [3]): > 32 µg/mL; MIC50 (Providencia rettgeri): 0.06 µg/mL (≈ 0.108 µM); MIC90 (Providencia rettgeri): > 32 µg/mL; MIC50 (Acinetobacter johnsonii): 2 µg/mL (≈ 3.61 µM); MIC90 (Acinetobacter johnsonii): 8 µg/mL (≈ 14.4 µM); MIC50 (Escherichia coli [4]): > 32 µg/mL; MIC90 (Escherichia coli [4]): > 32 µg/mL; MIC50 (Klebsiella aerogenes [5]): 32 µg/mL (≈ 57.7 µM); MIC90 (Klebsiella aerogenes [5]): > 32 µg/mL; MIC50 (Klebsiella oxytoca): 0.06 µg/mL (≈ 0.108 µM); MIC90 (Klebsiella oxytoca): 0.12 µg/mL (≈ 0.216 µM); MIC50 (Acinetobacter lwoffii): 2 µg/mL (≈ 3.61 µM); MIC90 (Acinetobacter lwoffii): 8 µg/mL (≈ 14.4 µM); MIC50 (Klebsiella pneumoniae [6]): 0.06 µg/mL (≈ 0.108 µM); MIC90 (Klebsiella pneumoniae [6]): 0.12 µg/mL (≈ 0.216 µM); MIC50 (Escherichia coli [7]): 0.06 µg/mL (≈ 0.108 µM); MIC90 (Escherichia coli [7]): 0.06 µg/mL (≈ 0.108 µM); MIC50 (Enterobacter cloacae [8]): 0.5 µg/mL (≈ 0.902 µM); MIC90 (Enterobacter cloacae [8]): > 32 µg/mL; MIC50 (Citrobacter freundii [9]): 32 µg/mL (≈ 57.7 µM); MIC90 (Citrobacter freundii [9]): > 32 µg/mL; MIC50 [10]: 2 µg/mL (≈ 3.61 µM); MIC90 [10]: 8 µg/mL (≈ 14.4 µM); MIC50 (Burkholderia cepacia): 32 µg/mL (≈ 57.7 µM); MIC90 (Burkholderia cepacia): > 32 µg/mL; MIC50 (Klebsiella pneumoniae [11]): 32 µg/mL (≈ 57.7 µM); MIC90 (Klebsiella pneumoniae [11]): > 32 µg/mL; MIC50 (Citrobacter freundii [12]): 0.5 µg/mL (≈ 0.902 µM); MIC90 (Citrobacter freundii [12]): > 32 µg/mL; MIC50 (Proteus vulgaris): 32 µg/mL (≈ 57.7 µM); MIC90 (Proteus vulgaris): > 32 µg/mL; MIC50 [13]: > 32 µg/mL; MIC90 [13]: > 32 µg/mL; MIC (Escherichia coli [14]): > 32 µg/mL; MIC50 (Escherichia coli [14]): > 32 µg/mL; MIC90 (Escherichia coli [14]): > 32 µg/mL; MIC [15]: ≤ 0.03 µg/mL; MIC50 [15]: ≤ 0.03 µg/mL; MIC90 [15]: ≤ 0.03 µg/mL; MIC50 (Citrobacter koseri): 0.06 µg/mL (≈ 0.108 µM); MIC90 (Citrobacter koseri): 0.25 µg/mL (≈ 0.451 µM); MIC50 (Klebsiella aerogenes [16]): 0.12 µg/mL (≈ 0.216 µM); MIC90 (Klebsiella aerogenes [16]): > 32 µg/mL; MIC50 (Serratia marcescens [17]): 0.5 µg/mL (≈ 0.902 µM); MIC90 (Serratia marcescens [17]): > 32 µg/mL; MIC50 (Morganella morganii): 0.06 µg/mL (≈ 0.108 µM); MIC90 (Morganella morganii): 8 µg/mL (≈ 14.4 µM); MIC [18]: > 32 µg/mL; MIC50 [18]: > 32 µg/mL; MIC90 [18]: > 32 µg/mL; MIC50 (Escherichia coli [19]): > 32 µg/mL; MIC90 (Escherichia coli [19]): > 32 µg/mL; MIC (Moraxella catarrhalis): ≤ 0.03 µg/mL; MIC50 (Moraxella catarrhalis): ≤ 0.03 µg/mL; MIC90 (Moraxella catarrhalis): 0.5 µg/mL (≈ 0.902 µM); MIC50 (Serratia marcescens [20]): 32 µg/mL (≈ 57.7 µM); MIC90 (Serratia marcescens [20]): > 32 µg/mL; MIC50 (Klebsiella pneumoniae [21]): > 32 µg/mL; MIC90 (Klebsiella pneumoniae [21]): > 32 µg/mL; MIC50 (Enterobacter cloacae [22]): 32 µg/mL (≈ 57.7 µM); MIC90 (Enterobacter cloacae [22]): > 32 µg/mL; MIC (Haemophilus influenzae [23]): ≤ 0.03 µg/mL; MIC50 (Haemophilus influenzae [23]): ≤ 0.03 µg/mL; MIC90 (Haemophilus influenzae [23]): ≤ 0.03 µg/mL; MIC50 (Acinetobacter junii): 2 µg/mL (≈ 3.61 µM); MIC90 (Acinetobacter junii): 8 µg/mL (≈ 14.4 µM); MIC (Haemophilus influenzae [24]): ≤ 0.03 µg/mL; MIC50 (Haemophilus influenzae [24]): ≤ 0.03 µg/mL; MIC90 (Haemophilus influenzae [24]): ≤ 0.03 µg/mL; MIC50 (Pseudomonas aeruginosa): > 32 µg/mL; MIC90 (Pseudomonas aeruginosa): > 32 µg/mL; MIC50 (Providencia stuartii): 0.06 µg/mL (≈ 0.108 µM); MIC90 (Providencia stuartii): > 32 µg/mL; MIC50 (Acinetobacter baumannii): > 32 µg/mL; MIC90 (Acinetobacter baumannii): > 32 µg/mL
